The values that follow come from ChEMBL document CHEMBL1147029, “Probing binding requirements of NAD kinase with modified substrate (NAD) analogues” (Bioorg Med Chem Lett, 2007).

Each structure is given as a SMILES string.

The target in one assay is T1, NAD kinase (Mycobacterium tuberculosis) (UniProt P9WHV7).
T1 sequence (whole entry): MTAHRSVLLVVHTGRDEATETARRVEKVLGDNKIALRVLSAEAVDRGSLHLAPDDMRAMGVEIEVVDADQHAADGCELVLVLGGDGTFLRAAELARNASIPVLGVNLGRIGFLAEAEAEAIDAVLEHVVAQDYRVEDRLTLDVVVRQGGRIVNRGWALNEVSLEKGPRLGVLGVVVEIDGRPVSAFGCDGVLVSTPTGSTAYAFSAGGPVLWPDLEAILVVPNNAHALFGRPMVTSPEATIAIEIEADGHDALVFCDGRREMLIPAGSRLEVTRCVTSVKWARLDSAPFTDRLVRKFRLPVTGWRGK
Kind of assay: Inhibition of Mycobacterium tuberculosis NAD kinase at 1 mM.
One may read the inhibition as how much of the control response was suppressed. In turn, `NC(=O)c1cccc([C@@H]2O[C@H](COP(=O)(O)OP(=O)(O)OC[C@H]3O[C@@H](n4cnc5c(N)ncnc54)[C@H](O)[C@@H]3O)[C@@H](O)[C@H]2O)c1` returned an inhibition of less than 10%.

As for `NC(=O)c1ccc[n+]([C@@H]2O[C@H](COP(=O)(O)OP(=O)(O)OC[C@H]3O[C@@H](n4cnc5c(N)ncnc54)[C@@H](O)[C@@H]3O)[C@@H](O)[C@H]2O)c1`, the inhibition turned out to be 40%.

Regarding `NC(=O)c1ccc[n+]([C@@H]2O[C@H](COP(=O)(O)OP(=O)(O)OC[C@H]3O[C@@H](n4cnc5c(N)ncnc54)[C@@H](F)[C@@H]3O)[C@@H](O)[C@H]2O)c1`, the inhibition is less than 10%.

For the compound `O=C(CBr)c1ccccn1`, the inhibition came to 63%.

Regarding `O=C(CBr)c1cccnc1`, the inhibition is 30%.

On to `O=C(CBr)c1ccncc1`, for which the inhibition amounted to 40%.

The compound `NC(=O)c1ccc[n+]([C@@H]2O[C@H](COP(=O)(O)OP(=O)(O)OC[C@H]3O[C@@H](n4cnc5c(N)ncnc54)[C@H](F)[C@@H]3O)[C@@H](O)[C@H]2O)c1` displayed an inhibition of less than 10%.

The next assay concerns the target T1, NAD kinase (Mycobacterium tuberculosis). Kind of assay: Inhibition of Mycobacterium tuberculosis NAD kinase at 2 mM.
`NC(=O)c1cccc([C@@H]2O[C@H](COP(=O)(O)OP(=O)(O)OC[C@H]3O[C@@H](n4cnc5c(N)ncnc54)[C@H](O)[C@@H]3O)[C@@H](O)[C@H]2O)c1` registered an inhibition of 37%.
